Patent US20240024488A1, “COMPOUNDS AND USES THEREOF” (Foghorn Therapeutics Inc., priority 2020, published 2024)

Key:
HiBit-BRM fusion protein = molecular target: T1, HiBit-BRM fusion protein (Homo sapiens, UniProt P51531); test: HiBiT-BRM cell-based degradation assay (Nano-Glo HiBiT Lytic Detection, 24 h); conditions: HeLa cell line expressing HiBiT-BRM; for DC50: read-out: BRM HiBit Degradation IC50
T1 construct: expressed in transfected cells
How it was run: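 Percent BRM loss was derived from HiBiT luminescence relative to DMSO-treated cells and cells given 2 μM of a known BRM/BRG1 degrader. Treatment lasted 24 h in HiBiT-BRM HeLa cells, with a top final concentration of 30 μM.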

[1] = molecular target: T2, HiBit-BRG1 fusion protein (Homo sapiens, UniProt P51532); test: HiBiT-BRG1 cell-based degradation assay (Nano-Glo HiBiT Lytic Detection, 24 h); conditions: HeLa cell line expressing HiBit-BRG1 and LgBit; for Dmax: read-out: BRG1 HiBit Degradation Maximum (%); for DC50: read-out: BRMG1 HiBit Degradation IC50
T2 construct: expressed in transfected cells
T2 sequence (P51532 whole entry, the tested form may be a part): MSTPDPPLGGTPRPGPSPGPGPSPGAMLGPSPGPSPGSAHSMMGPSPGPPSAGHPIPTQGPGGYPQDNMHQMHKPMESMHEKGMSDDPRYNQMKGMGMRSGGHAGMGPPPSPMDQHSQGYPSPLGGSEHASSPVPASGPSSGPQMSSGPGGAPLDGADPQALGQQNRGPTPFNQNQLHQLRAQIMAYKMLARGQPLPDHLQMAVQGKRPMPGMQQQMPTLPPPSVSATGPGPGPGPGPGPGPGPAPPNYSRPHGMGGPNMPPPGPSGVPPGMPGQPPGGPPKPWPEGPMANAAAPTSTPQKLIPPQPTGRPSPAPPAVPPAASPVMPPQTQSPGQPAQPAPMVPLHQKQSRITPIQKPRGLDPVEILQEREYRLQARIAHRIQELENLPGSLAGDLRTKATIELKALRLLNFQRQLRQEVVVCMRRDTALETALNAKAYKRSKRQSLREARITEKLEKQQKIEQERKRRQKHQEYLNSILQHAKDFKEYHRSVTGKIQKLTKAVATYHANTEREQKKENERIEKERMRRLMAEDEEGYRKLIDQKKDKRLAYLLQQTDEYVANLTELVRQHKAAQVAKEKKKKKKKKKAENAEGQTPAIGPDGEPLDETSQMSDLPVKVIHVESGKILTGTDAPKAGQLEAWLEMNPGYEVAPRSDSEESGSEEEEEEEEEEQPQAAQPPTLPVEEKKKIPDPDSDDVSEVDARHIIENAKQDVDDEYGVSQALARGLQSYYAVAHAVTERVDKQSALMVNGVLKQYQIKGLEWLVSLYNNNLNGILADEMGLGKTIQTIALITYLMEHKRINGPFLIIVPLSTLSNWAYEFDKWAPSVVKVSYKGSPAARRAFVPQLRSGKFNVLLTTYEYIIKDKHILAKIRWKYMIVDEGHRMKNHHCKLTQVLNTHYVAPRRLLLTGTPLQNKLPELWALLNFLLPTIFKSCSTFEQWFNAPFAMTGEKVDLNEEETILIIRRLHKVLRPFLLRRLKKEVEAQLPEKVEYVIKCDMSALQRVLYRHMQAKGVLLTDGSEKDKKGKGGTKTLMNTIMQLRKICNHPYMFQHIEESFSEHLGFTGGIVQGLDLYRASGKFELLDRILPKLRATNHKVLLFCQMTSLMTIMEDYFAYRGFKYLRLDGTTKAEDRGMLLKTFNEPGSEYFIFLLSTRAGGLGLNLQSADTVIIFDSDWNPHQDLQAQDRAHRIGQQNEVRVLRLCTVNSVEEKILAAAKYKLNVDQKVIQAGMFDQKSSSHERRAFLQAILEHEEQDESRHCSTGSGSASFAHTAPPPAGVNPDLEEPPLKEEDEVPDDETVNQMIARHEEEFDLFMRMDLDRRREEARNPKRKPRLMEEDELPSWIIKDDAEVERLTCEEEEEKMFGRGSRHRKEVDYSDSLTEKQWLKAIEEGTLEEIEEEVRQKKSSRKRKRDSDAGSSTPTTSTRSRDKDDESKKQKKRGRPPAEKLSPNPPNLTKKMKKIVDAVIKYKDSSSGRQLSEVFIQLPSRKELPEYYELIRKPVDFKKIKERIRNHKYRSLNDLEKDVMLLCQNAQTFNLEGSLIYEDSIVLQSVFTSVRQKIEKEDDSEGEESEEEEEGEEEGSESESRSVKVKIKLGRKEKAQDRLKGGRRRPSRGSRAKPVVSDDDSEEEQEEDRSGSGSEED
How it was run: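 HeLa cells stably expressing HiBit-BRG1 plus LgBit; compound exposure 24 h; Nano-Glo HiBiT lytic luminescence; % degradation vs DMSO (0%) and 2 μM standard BRM/BRG1 degrader (100%).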

T1 sequence (P51531 whole entry, the tested form may be a part): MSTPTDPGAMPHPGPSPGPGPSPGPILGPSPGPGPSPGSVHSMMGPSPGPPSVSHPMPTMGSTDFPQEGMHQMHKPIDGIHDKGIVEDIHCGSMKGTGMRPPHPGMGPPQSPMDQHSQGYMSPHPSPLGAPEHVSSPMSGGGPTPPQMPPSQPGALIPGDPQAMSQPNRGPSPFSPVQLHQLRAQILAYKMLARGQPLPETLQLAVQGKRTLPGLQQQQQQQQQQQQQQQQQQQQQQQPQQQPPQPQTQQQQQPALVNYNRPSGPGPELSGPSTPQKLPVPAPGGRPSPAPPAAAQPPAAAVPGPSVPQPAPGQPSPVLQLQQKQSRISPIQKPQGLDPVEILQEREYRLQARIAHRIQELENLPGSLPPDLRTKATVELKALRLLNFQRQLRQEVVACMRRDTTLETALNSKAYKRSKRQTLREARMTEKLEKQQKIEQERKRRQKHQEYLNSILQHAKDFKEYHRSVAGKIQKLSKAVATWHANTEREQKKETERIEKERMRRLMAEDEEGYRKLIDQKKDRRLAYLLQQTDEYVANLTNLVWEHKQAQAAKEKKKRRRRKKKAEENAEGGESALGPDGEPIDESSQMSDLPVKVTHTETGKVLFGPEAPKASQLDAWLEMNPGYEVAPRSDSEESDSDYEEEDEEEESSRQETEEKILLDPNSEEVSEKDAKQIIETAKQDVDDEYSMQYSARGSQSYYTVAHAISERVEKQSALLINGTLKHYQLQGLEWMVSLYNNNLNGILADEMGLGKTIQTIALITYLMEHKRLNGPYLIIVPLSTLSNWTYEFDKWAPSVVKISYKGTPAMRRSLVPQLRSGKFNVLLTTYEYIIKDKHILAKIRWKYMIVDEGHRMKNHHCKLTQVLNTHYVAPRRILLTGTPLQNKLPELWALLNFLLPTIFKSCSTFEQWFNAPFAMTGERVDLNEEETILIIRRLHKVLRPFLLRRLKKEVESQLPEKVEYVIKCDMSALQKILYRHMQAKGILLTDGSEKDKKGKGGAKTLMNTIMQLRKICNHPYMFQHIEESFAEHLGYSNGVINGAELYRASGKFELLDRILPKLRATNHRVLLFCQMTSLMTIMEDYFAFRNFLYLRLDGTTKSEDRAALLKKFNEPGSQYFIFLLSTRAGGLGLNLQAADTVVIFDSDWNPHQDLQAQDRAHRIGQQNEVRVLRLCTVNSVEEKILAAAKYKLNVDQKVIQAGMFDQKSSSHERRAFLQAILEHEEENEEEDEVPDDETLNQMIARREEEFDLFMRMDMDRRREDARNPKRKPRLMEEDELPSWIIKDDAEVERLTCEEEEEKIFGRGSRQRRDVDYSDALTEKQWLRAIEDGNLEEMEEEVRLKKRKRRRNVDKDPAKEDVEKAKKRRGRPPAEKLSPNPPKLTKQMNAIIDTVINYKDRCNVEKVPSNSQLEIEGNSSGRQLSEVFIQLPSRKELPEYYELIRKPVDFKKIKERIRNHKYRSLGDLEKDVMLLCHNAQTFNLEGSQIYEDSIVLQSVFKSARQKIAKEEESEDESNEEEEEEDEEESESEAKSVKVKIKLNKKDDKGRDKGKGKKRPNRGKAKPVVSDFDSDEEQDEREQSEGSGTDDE

DC50 (HiBit-BRM fusion protein)	Dmax [1]	DC50 [1]	Compound	BRM HiBit Degradation Maximum (%) (HiBit-BRM fusion protein)
> 10 nM	> 75%	> 100 nM	Cc1ncsc1-c1ccc([C@H](C)NC(=O)[C@@H]2C[C@@H](O)CN2C(=O)[C@@H](c2cc(N3CCC(C(=O)N[C@@H]4CCc5[nH]c6nnc(-c7ccccc7O)cc6c5C4)CC3)no2)C(C)C)cc1 (single isomer, unassigned) [Compound 146]	A (“A” indicates maximum degradation ≥ 75%)
> 10 nM	> 50%	> 100 nM	Cc1ncsc1-c1ccc([C@H](C)NC(=O)[C@@H]2C[C@@H](O)CN2C(=O)C(c2cc(C3CCN(C(=O)[C@H]4CCc5[nH]c6nnc(-c7ccccc7O)cc6c5C4)CC3)no2)C(C)C)cc1 (single isomer, unassigned) [Compound 147]	A (“A” indicates maximum degradation ≥ 75%)
–	< 50%	–	Cc1ncsc1-c1ccc([C@H](C)NC(=O)[C@@H]2C[C@@H](O)CN2C(=O)[C@H](c2cc(C3CN(C(=O)[C@H]4CCc5[nH]c6nnc(-c7ccccc7O)cc6c5C4)C3)no2)C(C)C)cc1 (single isomer, unassigned) [Compound 153]	C (“C” indicates maximum degradation < 50%)
–	< 50%	–	Cc1ncsc1-c1ccc([C@H](C)NC(=O)[C@@H]2C[C@@H](O)CN2C(=O)[C@H](c2cc(C3CN(C(=O)[C@@H]4CCc5[nH]c6nnc(-c7ccccc7O)cc6c5C4)C3)no2)C(C)C)cc1 (single isomer, unassigned) [Compound 154]	C (“C” indicates maximum degradation < 50%)
–	< 50%	–	Cc1ncsc1-c1ccc([C@H](C)NC(=O)[C@@H]2C[C@@H](O)CN2C(=O)[C@H](c2cc(C3CCN(C(=O)[C@H]4CCc5[nH]c6nnc(-c7ccccc7O)cc6c5C4)CC3)no2)C(C)C)cc1 (single isomer, unassigned) [Compound 155]	C (“C” indicates maximum degradation < 50%)
> 100 nM	< 50%	–	Cc1ncsc1-c1ccc([C@H](C)NC(=O)[C@@H]2C[C@@H](O)CN2C(=O)[C@@H](c2cc(C3CN(C(=O)[C@@H]4CCc5[nH]c6nnc(-c7ccccc7O)cc6c5C4)C3)no2)C(C)C)cc1 (single isomer, unassigned) [Compound 158]	A (“A” indicates maximum degradation ≥ 75%)
> 10 nM	< 50%	> 1000 nM	Cc1ncsc1-c1ccc([C@H](C)NC(=O)[C@@H]2C[C@@H](O)CN2C(=O)[C@@H](c2cc(C3CCN(C(=O)[C@@H]4CCc5[nH]c6nnc(-c7ccccc7O)cc6c5C4)CC3)no2)C(C)C)cc1 (single isomer, unassigned) [Compound 166]	A (“A” indicates maximum degradation ≥ 75%)
> 100 nM	> 50%	> 1000 nM	Cc1ncsc1-c1ccc([C@H](C)NC(=O)[C@@H]2C[C@@H](O)CN2C(=O)[C@@H](c2cc(N3CCC(CN[C@@H]4CCc5[nH]c6nnc(-c7ccccc7O)cc6c5C4)CC3)no2)C(C)C)cc1 (single isomer, unassigned) [Compound 173]	A (“A” indicates maximum degradation ≥ 75%)
> 100 nM	> 75%	> 100 nM	Cc1ncsc1-c1ccc([C@H](C)NC(=O)[C@@H]2C[C@@H](O)CN2C(=O)[C@@H](c2cc(N3CCN(C(=O)[C@H]4CCc5[nH]c6nnc(-c7ccccc7O)cc6c5C4)CC3)no2)C(C)C)cc1 (single isomer, unassigned) [Compound 188]	A (“A” indicates maximum degradation ≥ 75%)
> 10 nM	< 50%	–	Cc1ncsc1-c1ccc([C@H](C)NC(=O)[C@@H]2C[C@@H](O)CN2C(=O)[C@@H](c2cc(N3CCN(C(=O)[C@@H]4CCc5[nH]c6nnc(-c7ccccc7O)cc6c5C4)CC3)no2)C(C)C)cc1 (single isomer, unassigned) [Compound 192]	A (“A” indicates maximum degradation ≥ 75%)

The remaining lines, values behind:

Compound	DC50 (HiBit-BRM fusion protein)	Dmax [1]	DC50 [1]	BRM HiBit Degradation Maximum (%) (HiBit-BRM fusion protein)
Cc1ncsc1-c1ccc([C@H](C)NC(=O)[C@@H]2C[C@@H](O)CN2C(=O)[C@@H](c2cc(OCCCN[C@@H]3CCc4[nH]c5nnc(-c6ccccc6O)cc5c4C3)no2)C(C)C)cc1 (single isomer, unassigned) [Compound 145]	> 100 nM	< 50%	–	A (“A” indicates maximum degradation ≥ 75%)
Cc1ncsc1-c1ccc([C@H](C)NC(=O)[C@@H]2C[C@@H](O)CN2C(=O)[C@@H](c2cc(CCN3CC(c4cc5cc(-c6ccccc6O)nnc5[nH]4)C3)no2)C(C)C)cc1 (single isomer, unassigned) [Compound 152]	> 100 nM	< 50%	–	B (“B” indicates maximum degradation ≥ 50%)
Cc1ncsc1-c1ccc([C@H](C)NC(=O)[C@@H]2C[C@@H](O)CN2C(=O)[C@H](c2cc(N3CC(CN4CC(c5cc6cc(-c7ccccc7O)nnc6[nH]5)C4)C3)no2)C(C)C)cc1 (single isomer, unassigned) [Compound 162]	–	> 50%	> 1000 nM	C (“C” indicates maximum degradation < 50%)
Cc1ncsc1-c1ccc([C@H](C)NC(=O)[C@@H]2C[C@@H](O)CN2C(=O)[C@@H](c2cc(N3CC(CN4CC(c5cc6cc(-c7ccccc7O)nnc6[nH]5)C4)C3)no2)C(C)C)cc1 (single isomer, unassigned) [Compound 163]	> 10 nM	> 50%	> 100 nM	A (“A” indicates maximum degradation ≥ 75%)
Cc1ncsc1-c1ccc([C@H](C)NC(=O)[C@@H]2C[C@@H](O)CN2C(=O)[C@@H](c2cc(OCCN(C)[C@H]3CCc4[nH]c5nnc(-c6ccccc6O)cc5c4C3)no2)C(C)C)cc1 (single isomer, unassigned) [Compound 165]	> 100 nM	< 50%	–	A (“A” indicates maximum degradation ≥ 75%)
Cc1ncsc1-c1ccc([C@H](C)NC(=O)[C@@H]2C[C@@H](O)CN2C(=O)[C@@H](c2cc(OCCNC(=O)[C@H]3CCc4[nH]c5nnc(-c6ccccc6O)cc5c4C3)no2)C(C)C)cc1 (single isomer, unassigned) [Compound 167]	> 100 nM	> 50%	> 100 nM	A (“A” indicates maximum degradation ≥ 75%)
Cc1ncsc1-c1ccc([C@H](C)NC(=O)[C@@H]2C[C@@H](O)CN2C(=O)[C@@H](c2cc(OCC(=O)N[C@H]3CCc4[nH]c5nnc(-c6ccccc6O)cc5c4C3)no2)C(C)C)cc1 (single isomer, unassigned) [Compound 168]	> 10 nM	< 50%	–	A (“A” indicates maximum degradation ≥ 75%)
Cc1ncsc1-c1ccc([C@H](C)NC(=O)[C@@H]2C[C@@H](O)CN2C(=O)[C@@H](c2cc(OCCNC(=O)[C@@H]3CCc4[nH]c5nnc(-c6ccccc6O)cc5c4C3)no2)C(C)C)cc1 (single isomer, unassigned) [Compound 172]	> 10 nM	< 50%	–	A (“A” indicates maximum degradation ≥ 75%)
Cc1ncsc1-c1ccc([C@H](C)NC(=O)[C@@H]2C[C@@H](O)CN2C(=O)[C@H](c2cc(C3CN(C(=O)c4cc5cc(-c6ccccc6O)nnc5[nH]4)C3)no2)C(C)C)cc1 (single isomer, unassigned) [Compound 176]	–	< 50%	–	C (“C” indicates maximum degradation < 50%)
Cc1ncsc1-c1ccc([C@H](C)NC(=O)[C@@H]2C[C@@H](O)CN2C(=O)[C@@H](c2cc(C3CN(C(=O)c4cc5cc(-c6ccccc6O)nnc5[nH]4)C3)no2)C(C)C)cc1 (single isomer, unassigned) [Compound 178]	–	< 50%	–	C (“C” indicates maximum degradation < 50%)
Cc1ncsc1-c1ccc([C@H](C)NC(=O)[C@@H]2C[C@@H](O)CN2C(=O)[C@@H](c2cc(C3CCN(C(=O)CN4CC(c5cc6cc(-c7ccccc7O)nnc6[nH]5)C4)CC3)no2)C(C)C)cc1 (single isomer, unassigned) [Compound 179]	> 100 nM	< 50%	–	A (“A” indicates maximum degradation ≥ 75%)
Cc1ncsc1-c1ccc(CNC(=O)[C@@H]2C[C@@H](O)CN2C(=O)[C@@H](NC(=O)CCCC(=O)N[C@H]2CCc3[nH]c4nnc(-c5ccccc5O)cc4c3C2)C(C)(C)C)cc1 (single isomer, unassigned) [Compound 184]	> 1000 nM	< 50%	–	B (“B” indicates maximum degradation ≥ 50%)
Cc1ncsc1-c1ccc(CNC(=O)[C@@H]2C[C@@H](O)CN2C(=O)[C@@H](NC(=O)CCCNC(=O)[C@H]2CCc3[nH]c4nnc(-c5ccccc5O)cc4c3C2)C(C)(C)C)cc1 (single isomer, unassigned) [Compound 190]	–	< 50%	–	C (“C” indicates maximum degradation < 50%)
Cc1ncsc1-c1ccc(CNC(=O)[C@@H]2C[C@@H](O)CN2C(=O)[C@@H](NC(=O)CNC(=O)[C@H]2CCc3[nH]c4nnc(-c5ccccc5O)cc4c3C2)C(C)(C)C)cc1 (single isomer, unassigned) [Compound 191]	–	< 50%	–	C (“C” indicates maximum degradation < 50%)
Cc1ncsc1-c1ccc(CNC(=O)[C@@H]2C[C@@H](O)CN2C(=O)[C@@H](NC(=O)CCCNC(=O)[C@@H]2CCc3[nH]c4nnc(-c5ccccc5O)cc4c3C2)C(C)(C)C)cc1 (single isomer, unassigned) [Compound 196]	> 100 nM	< 50%	–	B (“B” indicates maximum degradation ≥ 50%)
